Measured values taken from PubChem BioAssay (NCI).
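Five concentrations, 48 hours, 96-well plates. The concentration for full growth arrest is given as TGI.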

Columns and labels:
Experiment in all cases: DTP human tumour cell line panel, 48 h
[1] = system: ACHN renal
[2] = system: NCI-H226 lung
[3] = system: HOP-62 NSCLC
[4] = system: A549 NSCLC
[5] = system: SK-MEL-5 melanoma
[6] = system: SK-MEL-2 melanoma
[7] = system: U251 CNS
[8] = system: HCT-15 colon
[9] = system: SN12C renal
[10] = system: PC-3 prostate
[11] = system: LOX IMVI melanoma
[12] = system: UACC-257 melanoma
[13] = system: OVCAR-3 ovarian
[14] = system: SW-620 colon
[15] = system: SF-539 CNS
[16] = system: OVCAR-4 ovarian
[17] = system: RPMI-8226 leukemia
[18] = system: 786-0 renal
[19] = system: MALME-3M melanoma
[20] = system: HOP-92 NSCLC
[21] = system: NCI-H23 lung
[22] = system: A498 renal
[23] = system: EKVX NSCLC
[24] = system: UO-31 renal
[25] = system: NCI/ADR-RES ovarian
[26] = system: M14 melanoma
[27] = system: SF-268 CNS
[28] = system: OVCAR-8 ovarian
[29] = system: SK-MEL-28 melanoma
[30] = system: HL-60(TB) leukemia
[31] = system: MOLT-4 leukemia
[32] = system: HS 578T breast
[33] = system: IGROV1 ovarian
[34] = system: CAKI-1 renal
[35] = system: MDA-MB-435
[36] = system: NCI-H460 lung
[37] = system: HCT-116 colon
[38] = system: SF-295 CNS
[39] = system: DU-145 prostate
[40] = system: NCI-H522 lung
[41] = system: CCRF-CEM leukemia
[42] = system: BT-549 breast
[43] = system: TK-10 renal
[44] = system: HT29 colon
[45] = system: COLO 205 colon
[46] = system: SNB-19 CNS
[47] = system: MDA-MB-231 breast
[48] = system: SK-OV-3 ovarian
[49] = system: T-47D breast
[50] = system: OVCAR-5 ovarian
[51] = system: RXF 393 renal
[52] = system: K-562 leukemia
[53] = system: KM12 colon
[54] = system: SR leukemia
[55] = system: UACC-62 melanoma

Measured: TGI

O=C1CCSSCCC(=O)Nc2ccccc2N1
> 100 µM: all assays above
